# Measurements published in patent publication US20090111778A1, “2-Keto-Oxazoles as Modulators of Fatty Acid Amide Hydrolase” (priority 2005, published 2009).
# Structures can show the parent of a compound that is named as a salt.
# Legend:
# [1] = target: T1, rat FAAH (Rattus norvegicus, UniProt P97612); test: Assay Method 2: FAAH assay, hydrolysis of 3H-anandamide by homogenate of SK-N-MC cells transfected with rat FAAH; type: biochemical; conditions: T84 or transfected SK-N-MC cell homogenate, 3H-AEA tracer 80 nM, rt 1 h, pH 9
# T1 construct: expressed in transfected cells
# T1 sequence (P97612 1-579): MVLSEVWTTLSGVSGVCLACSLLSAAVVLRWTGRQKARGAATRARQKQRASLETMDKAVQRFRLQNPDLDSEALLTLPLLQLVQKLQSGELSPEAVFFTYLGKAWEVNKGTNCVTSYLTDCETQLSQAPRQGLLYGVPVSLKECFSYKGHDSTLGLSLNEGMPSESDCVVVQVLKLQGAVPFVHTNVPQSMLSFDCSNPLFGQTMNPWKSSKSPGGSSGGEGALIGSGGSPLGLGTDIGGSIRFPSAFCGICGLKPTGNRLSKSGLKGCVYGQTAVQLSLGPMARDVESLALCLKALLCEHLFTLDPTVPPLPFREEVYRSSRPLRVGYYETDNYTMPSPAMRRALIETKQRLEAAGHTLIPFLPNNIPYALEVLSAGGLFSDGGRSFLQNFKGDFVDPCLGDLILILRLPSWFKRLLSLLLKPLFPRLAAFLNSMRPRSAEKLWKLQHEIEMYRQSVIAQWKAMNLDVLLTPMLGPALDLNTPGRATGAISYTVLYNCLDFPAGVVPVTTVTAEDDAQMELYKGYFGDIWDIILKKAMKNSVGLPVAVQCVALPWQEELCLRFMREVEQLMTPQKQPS
# Experimental: A. Transfection of Cells with Rat FAAH A 10-cm tissue culture dish with a confluent monolayer of SK-N-MC cells was split 2 days (d) prior to transfection. Using sterile technique, the media was removed and the cells were detached from the dish by the addition of trypsin. One fifth of the cells were then placed onto a new 10-cm dish. Cells were grown in a 37° C. incubator with 5% CO2 in Minimal Essential Media Eagle with 10% Fetal Bovine Serum. After 2 d, cells were approximately 80% confluent. These cells were removed from the dish with trypsin and pelleted in a clinical centrifuge. The pellet was re-suspended in 400 μL complete media and transferred to an electroporation cuvette with a 0.4 cm gap between the electrodes. Supercoiled rat FAAH cDNA (1 μg) was added to the cells and mixed. The voltage for the electroporation was set at 0.25 kV, and the capacitance was set at 960 μF. After electroporation, the cells were diluted into complete media (10 mL) and plated onto four 10-cm dishes. Because of the variability in the efficiency of electroporation, four different concentrations of cells were plated. The ratios used were 1:20, 1:10, and 1:5, with the remainder of the cells being added to the fourth dish. The cells were allowed to recover for 24 h before adding the selection media (complete media with 600 μg/mL G418). After 10 d, dishes were analyzed for surviving colonies of cells. Dishes with well-isolated colonies were used. Cells from individual colonies were isolated and tested. […] B. FAAH Assay […] The reaction mixture was incubated at rt for 1 h. During the incubation, 96-well Multiscreen filter plates (catalog number MAFCNOB50; Millipore, Bedford, Mass., USA) were loaded with 25 μL of activated charcoal (Multiscreen column loader, catalog number MACL09625, Millipore) and washed once with 100 μL of MeOH. Also during the incubation, 96-well DYNEX MicroLite plates (catalog number NL510410) were loaded with 100 μL of MicroScint40 (catalog number 6013641, Packard Bioscience, Meriden, Conn., USA). After the 1 h incubation, 60 μL of the reaction mixture were transferred to the charcoal plates, which were then assembled on top of the DYNEX plates using Centrifuge Alignment Frames (catalog number MACF09604, Millipore). The unbound labeled ethanolamine was centrifuged through to the bottom plate (5 min at 2000 rpm), which was preloaded with the scintillant, as described above. The plates were sealed and left at rt for 1 h before counting on a Hewlett Packard TopCount.
# [2] = target: T2, human FAAH (Homo sapiens, UniProt O00519); test: Assay Method 1: FAAH assay, hydrolysis of 3H-anandamide by homogenate of SK-N-MC cells transfected with human FAAH; type: biochemical; conditions: human FAAH; T84 or transfected SK-N-MC cell homogenate; 3H-AEA tracer 80 nM; rt 1 h; pH 9; read-out: Assay 1 IC50
# T2 construct: expressed in transfected cells
# T2 sequence (O00519 1-579): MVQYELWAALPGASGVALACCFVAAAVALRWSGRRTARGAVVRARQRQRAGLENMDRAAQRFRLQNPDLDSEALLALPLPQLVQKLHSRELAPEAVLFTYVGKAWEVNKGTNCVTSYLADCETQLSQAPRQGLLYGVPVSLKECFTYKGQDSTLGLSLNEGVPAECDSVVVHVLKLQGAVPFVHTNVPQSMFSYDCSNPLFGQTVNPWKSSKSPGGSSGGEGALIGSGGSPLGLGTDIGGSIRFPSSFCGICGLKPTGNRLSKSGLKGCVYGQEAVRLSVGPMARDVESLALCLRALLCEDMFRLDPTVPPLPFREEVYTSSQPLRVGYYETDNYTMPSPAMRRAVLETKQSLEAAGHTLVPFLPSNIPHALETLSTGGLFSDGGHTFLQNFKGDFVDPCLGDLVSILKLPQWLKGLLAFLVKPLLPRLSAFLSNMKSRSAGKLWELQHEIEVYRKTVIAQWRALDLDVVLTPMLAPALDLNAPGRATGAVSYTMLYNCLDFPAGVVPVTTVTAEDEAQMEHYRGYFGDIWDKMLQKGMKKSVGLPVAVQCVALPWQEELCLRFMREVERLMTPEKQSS
# Experimental: A. Transfection of Cells with Human FAAH
# A 10-cm tissue culture dish with a confluent monolayer of SK-N-MC cells was split 2 days (d) prior to transfection. Using sterile technique, the media was removed and the cells were detached from the dish by the addition of trypsin. One fifth of the cells were then placed onto a new 10-cm dish. Cells were grown in a 37° C. incubator with 5% CO2 in Minimal Essential Media Eagle with 10% Fetal Bovine Serum. After 2 d, cells were approximately 80% confluent. These cells were removed from the dish with trypsin and pelleted in a clinical centrifuge. The pellet was re-suspended in 400 μL complete media and transferred to an electroporation cuvette with a 0.4 cm gap between the electrodes. Supercoiled human FAAH cDNA (1 μg) was added to the cells and mixed. The voltage for the electroporation was set at 0.25 kV, and the capacitance was set at 960 μF. After electroporation, the cells were diluted into complete media (10 mL) and plated onto four 10-cm dishes. Because of the variability in the efficiency of electroporation, four different concentrations of cells were plated. The ratios used were 1:20, 1:10, and 1:5, with the remainder of the cells being added to the fourth dish. The cells were allowed to recover for 24 h before adding the selection media (complete media with 600 μg/mL G418). After 10 d, dishes were analyzed for surviving colonies of cells. Dishes with well-isolated colonies were used. Cells from individual colonies were isolated and tested.
# The assay mixture consisted of […] of the cell homogenate, 10 μL of the test compound, and 40 μL of anandamide [1-^3H-ethanolamine] (3H-AEA, Perkin-Elmer, 10.3 Ci/mmol), which was added last, for a final tracer concentration of 80 nM. The reaction mixture was incubated at rt for 1 h. During the incubation, 96-well Multiscreen filter plates (catalog number MAFCNOB50; Millipore, Bedford, Mass., USA) were loaded with 25 μL of activated charcoal (Multiscreen column loader, catalog number MACL09625, Millipore) and washed once with 100 μL of MeOH. Also during the incubation, 96-well DYNEX MicroLite plates (catalog number NL510410) were loaded with 100 μL of MicroScint40 (catalog number 6013641, Packard Bioscience, Meriden, Conn., USA). After the 1 h incubation, 60 μL of the reaction mixture were transferred to the charcoal plates, which were then assembled on top of the DYNEX plates using Centrifuge Alignment Frames (catalog number MACF09604, Millipore). The unbound labeled ethanolamine was centrifuged through to the bottom plate (5 min at 2000 rpm), which was preloaded with the scintillant, as described above. The plates were sealed and left at rt for 1 h before counting on a Hewlett Packard TopCount.
Compound,IC50 [1],IC50 [2]
"O=C(O)c1cnc(C(=O)CCCC2CCN(Cc3cccc(Oc4ccccc4)c3)CC2)o1 [Example 145, 2-{4-[1-(3-Phenoxy-benzyl)-piperidin-4-yl]-butyryl}-oxazole-5-carboxylic acid trifluoroacetic acid salt]",3 nM,6 nM
"O=C(CCCC1CCN(C(=O)c2ccccc2)CC1)c1ncco1 [Example 28, 4-(1-Benzoyl-piperidin-4-yl)-1-oxazol-2-yl-butan-1-one]",563 nM,67 nM
"CC(C)Cc1ccc(CN2CCC(CCCC(=O)c3ncco3)CC2)cc1 [Example 82, 4-[1-(4-Isobutyl-benzyl)-piperidin-4-yl]-1-oxazol-2-yl-butan-1-one]",49 nM,23 nM
"Cc1ccc(CCC(=O)N2CCC(CCCC(=O)c3ncco3)CC2)cc1 [Example 44, 1-Oxazol-2-yl-4-[1-(3-p-tolyl-propionyl)-piperidin-4-yl]-butan-1-one]",10 nM,40 nM
"O=C(CCCC1CCN(S(=O)(=O)CCc2ccccc2)CC1)c1ncco1 [Example 54, 1-Oxazol-2-yl-4-[1-(2-phenyl-ethanesulfonyl)-piperidin-4-yl]-butan-1-one]",125 nM,6 nM
"O=C(CCCC1CCN(Cc2ccc(N3CCCCC3)nc2)CC1)c1ncco1 [Example 108, 1-oxazol-2-yl-4-[1-(3,4,5,6-tetrahydro-2H-[1,2′]bipyridinyl-5′-ylmethyl)-piperidin-4-yl]-butan-1-one]",235 nM,23 nM
"O=C(CCCC1CCN(Cc2cccc(OC3CCCCC3)c2)CC1)c1ncco1 [Example 136, 4-[1-(3-Cyclohexyloxy-benzyl)-piperidin-4-yl]-1-oxazol-2-yl-butan-1-one]",2 nM,1 nM
"COc1ccc(CN2CCC(CCCC(=O)c3ncco3)CC2)cn1 [Example 74, 4-[1-(6-Methoxy-pyridin-3-ylmethyl)-piperidin-4-yl]-1-oxazol-2-yl-butan-1-one]",5000 nM,1300 nM
"CC(C)c1ccc(CN2CCC(CCCC(=O)c3ncc(C(=O)O)o3)CC2)cc1 [Example 144, 2-{4-[1-(4-Isopropyl-benzyl)-piperidin-4-yl]-butyryl}-oxazole-5-carboxylic acid trifluoroacetic acid salt]",17 nM,75 nM
"Cc1cccc2cc(CN3CCC(CCCC(=O)c4ncco4)CC3)c(Cl)nc12 [Example 99, 4-[1-(2-Chloro-8-methyl-quinolin-3-ylmethyl)-piperidin-4-yl]-1-oxazol-2-yl-butan-1-one]",8 nM,5 nM
"O=C(CCCC1CCN(Cc2cc(F)c(F)c(F)c2)CC1)c1ncco1 [Example 131, 1-Oxazol-2-yl-4-[1-(3,4,5-trifluoro-benzyl)-piperidin-4-yl]-butan-1-one]",760 nM,88 nM
"O=C(CCCC1CCN(Cc2ccc(Br)c(Br)c2)CC1)c1ncco1 [Example 11, 4-[1-(3,4-Dibromo-benzyl)-piperidin-4-yl]-1-oxazol-2-yl-butan-1-one]",95 nM,36 nM
"Cc1cccc(CC(=O)N2CCC(CCCC(=O)c3ncco3)CC2)c1 [Example 39, 1-Oxazol-2-yl-4-[1-(2-m-tolyl-acetyl)-piperidin-4-yl]-butan-1-one]",463 nM,834 nM
"O=C(CCCC1CCN(Cc2ccnc3ccccc23)CC1)c1ncco1 [Example 93, 1-Oxazol-2-yl-4-(1-quinolin-4-ylmethyl-piperidin-4-yl)-butan-1-one]",923 nM,70 nM
"O=C(CCCC1CCN(Cc2ccc3c(c2)OC(F)(F)O3)CC1)c1ncco1 [Example 125, 4-[1-(2,2-Difluoro-benzo[1,3]dioxol-5-ylmethyl)-piperidin-4-yl]-1-oxazol-2-yl-butan-1-one]",81 nM,4 nM
"CCCCCCCN1CCC(CCCC(=O)c2ncco2)CC1 [Example 126, 4-(1-Heptyl-piperidin-4-yl)-1-oxazol-2-yl-butan-1-one]",810 nM,23 nM
"CC(C)(C)OC(=O)N1CCC(CCCC(=O)c2ncco2)CC1 [Example 1, 4-(4-Oxazol-2-yl-4-oxo-butyl)-piperidine-1-carboxylic acid tert-butyl ester]",27 nM,1.8 nM
"N#Cc1cccc(-c2ccc(CN3CCC(CCCC(=O)c4ncco4)CC3)cn2)c1 [Example 112, 3-{5-[4-(4-Oxazol-2-yl-4-oxo-butyl)-piperidin-1-ylmethyl]-pyridin-2-yl}-benzonitrile]",174 nM,14 nM
"Cc1ccccc1CN1CCC(CCCC(=O)c2ncco2)CC1 [Example 80, 4-[1-(2-Methyl-benzyl)-piperidin-4-yl]-1-oxazol-2-yl-butan-1-one]",2000 nM,1200 nM
